{"source": "patent US20150258107A1", "about": "“METHODS AND COMPOSITIONS FOR TREATING DEPRESSION” (DemeRx, Inc., priority 2014, published 2015)", "key": {"[1]": {"assay": "Single dose toxicity in cynomolgus monkeys", "format": "in vivo, cynomolgus monkey", "conditions": "cynomolgus monkey, in vivo; oral gavage; read-out: single dose maximum tolerated dose (MTD)", "protocol": "(§1) The objective of the study was to determine the toxicity and toxicokinetic profile of noribogaine following oral (gavage) administration to the cynomolgus monkey. Each dose was followed by a 7 day washout period. Dosing was staggered by 45 minutes. On study day 15, one animal was administered 80 mg/kg and the other animal was administered 160 mg/kg. The test article was administered as follows in Table 1:\n(§2) Parameters monitored on the study included: mortality, clinical signs and body weights. Blood samples were collected for TK evaluation. […] The single dose maximum tolerated dose (MTD) was determined to be greater than 160 mg/kg based on the parameters monitored during the study."}, "cynomolgus monkey": {"tested_on": "cynomolgus monkey", "assay": "Single dose toxicity in cynomolgus monkeys", "format": "in vivo", "conditions": "oral gavage, doses up to and including 160 mg/kg", "protocol": "as §1, §2"}, "[2]": {"assay": "Human pharmacokinetic study, single oral tablet, fasting healthy volunteers (serum levels)", "format": "in vivo", "conditions": "fasting; for Cmax: human, serum, oral", "protocol": "In double blind studies, fasting healthy volunteers (6 per cohort) were treated once orally with a tablet of noribogaine HCl. In escalating cohorts, the volunteers received 3 mg, 10 mg, 30 mg or 60 mg noribogaine."}, "[3]": {"tested_on": "healthy, drug-free male volunteers", "assay": "Pupillometry (pupillary miosis) in healthy volunteers", "format": "in vivo, human", "conditions": "3, 10, 30, 60 mg single oral dose", "protocol": "Pulse oximetry and capnography data were collected continuously using a GE Carescape B650 monitoring system from 2 hours prior to dosing and until six hours after dosing, and thereafter at 12, 24, 48 and 72 hours post-dosing. […] Pupillary miosis was assessed by pupillometry.\nSummary statistics (means, standard deviations, and coefficients of variation) were determined for each dose group for safety laboratory test data, ECG and pharmacokinetic parameters, and pharmacodynamic variables. Categorical variables were analysed using counts and percentages. Dose-proportionality of AUC and Cmax was assessed using linear regression. The effect of dose on pharmacodynamic parameter values over time was assessed using two-factor analysis of variance (ANOVA). Pairwise comparisons (with Tukey-Kramer adjustment) between each dose group to the placebo were conducted at each time point using the least squares estimates obtained from the ANOVA, using SAS Proc Mixed (SAS ver 6.0)."}, "[4]": {"tested_on": "opioid-dependent participants", "assay": "Time to resumption of opioid substitution treatment (OST) and opiate withdrawal scales", "format": "in vivo, human", "protocol": "Three cohorts of nine (9) subjects (6 administered noribogaine and 3 administered placebo in each cohort) were evaluated for tolerability, pharmacokinetics, and efficacy. Cohort 1 received a single dose of 60 mg noribogaine or placebo. Cohort 2 received a single dose of 120 mg noribogaine or placebo. Cohort 3 received a single dose of 180 mg noribogaine or placebo. […] Headaches were frequent in the placebo and 60 mg noribogaine treatment groups, but were attenuated in the 120 mg and 180 mg dose groups.\nPatients were evaluated based on the Clinical Opiate Withdrawal Scale (COWS), Subjective Opiate Withdrawal Scale (SOWS), and Objective Opiate Withdrawal Scale (OOWS) scoring systems over the period of time between administration of noribogaine (or placebo) until resumption of OST. These scales are outlined in Guidelines for the Psychosocially Assisted Pharmacological Treatment of Opioid Dependence, World Health Organization, Geneva (2009), Annex 10, which is incorporated herein by reference in its entirety. The scales measure the intensity of withdrawal symptoms, based on clinical, subjective, and objective indicia."}, "[5]": {"assay": "Pharmacokinetics of noribogaine in healthy male volunteers (plasma and urine, LCMSMS)", "conditions": "for CL/F / AUC0-216 / AUC0-∞ / Cmax / Tmax / T½: mean (SD); for AUC0-216 / AUC0-∞ / Cmax / Tmax / T½: plasma"}}}
{"smiles": "CC[C@H]1CC2C[C@H]3c4[nH]c5ccc(O)cc5c4CCN(C2)C13", "note": "[noribogaine]", "values": [{"measurement": "MTD", "setting": "[1]", "value": "> 160", "unit": "mg/kg"}, {"measurement": "Mortality or treatment related clinical signs", "setting": "cynomolgus monkey", "value": "No mortality or treatment related clinical signs were noted"}, {"measurement": "Cmax", "setting": "[2]; single dose of 3 mg", "value": 5.2, "unit": "ng/mL"}, {"measurement": "Cmax", "setting": "[2]; single dose of 10 mg", "value": 14.5, "unit": "ng/mL"}, {"measurement": "Cmax", "setting": "[2]; single dose of 30 mg", "value": 55.9, "unit": "ng/mL"}, {"measurement": "Cmax", "setting": "[2]; single dose of 60 mg", "value": 116, "unit": "ng/mL"}, {"measurement": "mean AUC/24 hr", "setting": "[2]; single dose of 3 mg", "value": 3.1, "unit": "ng/mL"}, {"measurement": "mean AUC/24 hr", "setting": "[2]; single dose of 10 mg", "value": 10.6, "unit": "ng/mL"}, {"measurement": "mean AUC/24", "setting": "[2]; single dose of 30 mg", "value": 29.2, "unit": "ng/mL"}, {"measurement": "mean AUC/24", "setting": "[2]; single dose of 60 mg", "value": 61, "unit": "ng/mL"}, {"measurement": "Pupillary constriction", "setting": "[3]", "value": "no evidence of pupillary constriction"}, {"measurement": "Withdrawal symptoms (COWS, OOWS, SOWS, first six hours)", "setting": "[4]; 120 mg", "value": "generally experienced fewer withdrawal symptoms than the other patients"}, {"measurement": "Average time to resumption of opioids", "setting": "[4]; single 120 mg dose", "value": "greater than 20 hours"}, {"measurement": "CL/F", "setting": "[5]; 3 mg (n = 6)", "value": "41.4 (7.0) L/h"}, {"measurement": "AUC0-216", "setting": "[5]; 3 mg (n = 6)", "value": "72.2 (13.2) ng · hr/ml"}, {"measurement": "AUC0-∞", "setting": "[5]; 3 mg (n = 6)", "value": "74.2 (13.1) ng · hr/ml"}, {"measurement": "Cmax", "setting": "[5]; 3 mg (n = 6)", "value": "5.2 (1.4) ng/ml"}, {"measurement": "Tmax", "setting": "[5]; 3 mg (n = 6)", "value": "1.9 (0.6) hr"}, {"measurement": "T½", "setting": "[5]; 3 mg (n = 6)", "value": "40.9 (8.7) hr"}, {"measurement": "CL/F", "setting": "[5]; 10 mg (n = 6)", "value": "42.3 (12.0) L/h"}, {"measurement": "AUC0-216", "setting": "[5]; 10 mg (n = 6)", "value": "251.4 (78.5) ng · hr/ml"}, {"measurement": "AUC0-∞", "setting": "[5]; 10 mg (n = 6)", "value": "254.5 (78.9) ng · hr/ml"}, {"measurement": "Cmax", "setting": "[5]; 10 mg (n = 6)", "value": "14.5 (2.1) ng/ml"}, {"measurement": "Tmax", "setting": "[5]; 10 mg (n = 6)", "value": "2.9 (1.8) hr"}, {"measurement": "T½", "setting": "[5]; 10 mg (n = 6)", "value": "49.2 (11.5) hr"}, {"measurement": "CL/F", "setting": "[5]; 30 mg (n = 6)", "value": "46.9 (16.4) L/h"}, {"measurement": "AUC0-216", "setting": "[5]; 30 mg (n = 6)", "value": "677.6 (221.1) ng · hr/ml"}, {"measurement": "AUC0-∞", "setting": "[5]; 30 mg (n = 6)", "value": "700.4 (223.3) ng · hr/ml"}, {"measurement": "Cmax", "setting": "[5]; 30 mg (n = 6)", "value": "55.9 (14.8) ng/ml"}, {"measurement": "Tmax", "setting": "[5]; 30 mg (n = 6)", "value": "1.8 (0.6) hr"}, {"measurement": "T½", "setting": "[5]; 30 mg (n = 6)", "value": "27.6 (7.0)) hr"}, {"measurement": "CL/F", "setting": "[5]; 60 mg (n = 6)", "value": "34.0 (11.4) L/h"}, {"measurement": "AUC0-216", "setting": "[5]; 60 mg (n = 6)", "value": "1935.4 (725.4) ng · hr/ml"}, {"measurement": "AUC0-∞", "setting": "[5]; 60 mg (n = 6)", "value": "1962.2 (726.5) ng · hr/ml"}, {"measurement": "Cmax", "setting": "[5]; 60 mg (n = 6)", "value": "116.0 (22.5) ng/ml"}, {"measurement": "Tmax", "setting": "[5]; 60 mg (n = 6)", "value": "2.4 (0.6) hr"}, {"measurement": "T½", "setting": "[5]; 60 mg (n = 6)", "value": "29.1 (9.3) hr"}, {"measurement": "Dose proportionality of Cmax and AUC", "setting": "[5]; 3-60 mg", "value": "Both Cmax and AUC increased linearly with dose"}, {"measurement": "Mean half-life estimates", "setting": "[5]; across dose groups", "value": "28 to 50", "unit": "h"}, {"measurement": "Volume of distribution", "setting": "[5]; across dose groups", "value": "1417 to 3086", "unit": "L"}, {"measurement": "Time of peak concentrations after oral dosing", "setting": "[5]; across dose groups 3-60 mg", "value": "2 to 3", "unit": "h"}]}
